These results are taken from article PMC4640066 (Nature Communications, 2015).

The target in one experiment is T1, α/β-tubulin (Sus scrofa, UniProt P02550+P02554).
T1 construct: α/β-Tubulin was purified from porcine brain; from tissue; host or cells: porcine brain
The experiment can be described thus: MT dynamics in vitro by TIRF microscopy of single MTs. It counts as biochemical, porcine. Particulars: 30 μM, 5 μM tubulin, GMPCPP seeds. The protocol: Purified α/β-tubulin was labelled with tetramethylrhodamine Succinimidyl Ester (C-1171, Life Technologies), Alexa Fluor 647 NHS Ester (A-20106, Life Technologies) or NHS-LC-biotin (21336, Life Technologies) as described. Briefly, α/β-tubulin was polymerized to form MTs. Then, the MTs were centrifuged, resuspended in labelling buffer containing NHS-conjugated dye or biotin. After the labelling reaction, two cycles of polymerization and depolymerization were performed to obtain active α/β-tubulin.
GMPCPP MT seeds were prepared by copolymerization of non-labelled tubulin, tetramethylrhodamine-labelled tubulin and biotin-labelled tubulin with 0.2 mM GMPCPP to yield the rhodamine and biotin labelling ratio 2% and 3%, respectively. GMPCPP was prepared enzymatically from GMPCP (M3170, Sigma-Aldrich) and nucleotide diphosphate kinase (N0379, Sigma-Aldrich)[35]. The glass chambers for observation were prepared as follows. […] The images of MTs were observed under total internal reflection fluorescence microscopy (IX81, Olympus) with a × 100 objective lens (UPlanSApo, numerical aperture (NA) 1.40, Olympus) and recorded at the frame rate of two frames per second using iXon3 EM CCD camera (Andor). […]

Experiment [1] deals with HeLa cells. The experiment in a line: MT nucleation (regrowth) assay, HeLa cells. The settings on record: 30 μM, MT regrowth 1 min, EB1 area. It is filed as cell-based, human. The protocol:
HeLa and U2OS cells were cultured in DMEM+GlutaMAX (Gibco) supplemented with 10% fetal bovine serum (FBS), 100 U ml^−1 penicillin, 100 μg ml^−1 streptomycin and 1 mM sodium pyruvate in a humidified atmosphere containing 5% CO2. RPE-1 cells were cultured in DMEM/F-12 (Gibco) supplemented with 10% FBS, 2 mM L-glutamine, 100 U ml^−1 penicillin, 100 μg ml^−1 streptomycin, 1 mM sodium pyruvate containing 10% FBS in a humidified atmosphere containing 5% CO2.
To depolymerize MTs, interphase cells were treated with 10 μM of nocodazole for 3 h, washed with cold medium and incubated on ice for 1 h. Mitotic cells were treated with 10 μM of STLC for 6 h, washed with cold medium and incubated on ice for 1 h. Subsequently, both cells were incubated in medium containing 1% DMSO or 30 μM of gatastatin for 10 min on ice. Cells were then put in warmed medium containing either 1% DMSO or 30 μM of gatastatin and were incubated at 37 °C (interphase cells) or 20 °C (mitotic cells) for 1 min. The cells were immediately fixed with cold MeOH (−20 °C).
After blocking with PBS containing 0.5% bovine serum albumin, cells were incubated with anti-EB1 antibody (1:500 dilution, Abcam, Cat# ab53358), anti-α-tubulin antibody (1:500 dilution, Sigma, Cat# T9026) and anti-pericentrin antibody (1:2,000 dilution, Abcam, Cat# ab4448). […]

Experiment [2] deals with T2, porcine brain α/β-tubulin (Sus scrofa, UniProt P02550+P02554).
T2 construct: α/β-Tubulin was purified from porcine brain; from tissue; host or cells: porcine brain
The experiment in a line: In vitro MT polymerization assay (glutamate, paclitaxel or Tau stimulated). The settings on record: absence of γ-tubulin; absorbance at 350 nm, 37 °C. It counts as biochemical. The protocol: For glutamate-stimulated MT polymerization, 1 mg ml^−1 porcine brain α/β-tubulin was mixed with glutamate (final concentration 1 M) and GTP (final concentration 1 mM) in RB buffer on ice. For paclitaxel-stimulated MT polymerization, 1 mg ml^−1 porcine brain α/β-tubulin was mixed with paclitaxel (final concentration 10 μM) and GTP (final concentration 1 mM) in RB buffer on ice. For recombinant Tau protein-stimulated MT polymerization, 1 mg ml^−1 α/β-tubulin purified from porcine brain and Tau protein were mixed with GTP (final concentration 1 mM) in RB buffer on ice. For γ-TuSC-stimulated MT polymerization, γ-TuSC was mixed with GTP (final concentration 1 mM). One of the compounds and α/β-tubulin were then added. Samples were transferred into cuvettes. Tubulin polymerization was monitored using the absorbance at 350 nm at 37 °C using a thermostatic spectrophotometer (Beckman Coulter).

In experiment [3] the test system is HeLa cells. The experiment can be described thus: Bipolar spindle establishment after STLC washout. It is filed as cell-based, human. The settings on record: 30 μM, 2 h after STLC washout. The procedure: To analyse bipolar spindle establishment from monopolar spindles, HeLa cells were arrested at prometaphase with 10 μM of STLC for 15 h. STLC was removed by washing cells with the medium three times. After treatment with 1% DMSO or 30 μM of gatastatin for 2 h, cells were immediately fixed with cold MeOH (−20 °C).
Immunostaining was performed as described above using anti-α-tubulin (1:250 dilution, Santa Cruz, Cat# sc-32293) and anti-pericentrin (1:250 dilution, Abcam, Cat# ab4448) antibodies. Spindle structure was observed under a Leica LAS AF 6000 fluorescence microscope (Leica Microsystems). The measurement of spindle length was performed as described above.

T1 sequence (P02550 whole entry): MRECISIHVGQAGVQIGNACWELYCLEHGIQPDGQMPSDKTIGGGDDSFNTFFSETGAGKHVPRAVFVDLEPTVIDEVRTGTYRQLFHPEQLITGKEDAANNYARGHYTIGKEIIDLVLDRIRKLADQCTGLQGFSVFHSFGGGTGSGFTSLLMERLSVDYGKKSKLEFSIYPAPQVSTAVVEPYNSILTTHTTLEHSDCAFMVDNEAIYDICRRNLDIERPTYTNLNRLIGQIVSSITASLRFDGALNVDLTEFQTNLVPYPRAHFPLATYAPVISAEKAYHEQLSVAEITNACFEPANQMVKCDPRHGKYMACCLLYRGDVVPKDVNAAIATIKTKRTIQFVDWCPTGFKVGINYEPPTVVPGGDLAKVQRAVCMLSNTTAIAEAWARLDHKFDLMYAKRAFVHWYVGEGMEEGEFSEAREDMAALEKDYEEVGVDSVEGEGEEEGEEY
T1 sequence (P02554 whole entry): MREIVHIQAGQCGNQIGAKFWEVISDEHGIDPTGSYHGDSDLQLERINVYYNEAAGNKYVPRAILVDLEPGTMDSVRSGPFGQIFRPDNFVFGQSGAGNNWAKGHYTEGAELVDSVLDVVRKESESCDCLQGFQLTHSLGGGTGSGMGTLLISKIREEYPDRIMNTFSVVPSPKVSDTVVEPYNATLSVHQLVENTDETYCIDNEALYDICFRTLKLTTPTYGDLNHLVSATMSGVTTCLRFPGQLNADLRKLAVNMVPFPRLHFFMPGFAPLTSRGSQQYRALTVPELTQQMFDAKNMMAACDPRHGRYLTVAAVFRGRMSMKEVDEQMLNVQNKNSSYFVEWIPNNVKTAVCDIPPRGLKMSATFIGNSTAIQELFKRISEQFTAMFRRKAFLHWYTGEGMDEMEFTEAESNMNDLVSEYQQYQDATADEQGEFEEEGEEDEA
T2 sequence (P02550 whole entry): as the sequence (P02550 whole entry) above
T2 sequence (P02554 whole entry): as the sequence (P02554 whole entry) above

Turning to `COc1cc2c(=O)c(-c3cc(OC)c4c(c3OC)OCO4)coc2cc1OCc1ccccc1` [Gatastatin, O^7-demethylbenzyl AG1], at α/β-tubulin, the “Effect on MT growth velocity (TIRF analysis of single MTs)” value is recorded as “did not affect MT growth velocity”. Moreover, the “Effect on MT nucleation activity of interphase and mitotic centrosomes” value in the experiment on HeLa cells [1] was “inhibited MT nucleation activity”. Moreover, in experiment [2], the “Effect on MT polymerization in vitro induced by glutamate, paclitaxel or recombinant Tau protein” value was “failed to impair MT polymerization in vitro”. In addition, the “Cells unable to assemble a metaphase-like spindle on STLC washout” value in the experiment on HeLa cells [3] is listed as 87%.
